Data on ten compounds can be found in patent publication US11899022B2, “Multiplexed proteomics and predictive drug candidate assessment” (The General Hospital Corporation, priority 2017, dated 2024).

Broadly, the IC50 is the concentration at which inhibition is half-maximal.

One test deals with LDKR1-4 cell lines. Put plainly: Ceritinib sensitivity of resistant clones LDKR1-4. It is filed as cell-based. On the procedure: (§1) In the particular study reported here, resistance to the small molecule ALK inhibitor Ceritinib was studied. The patient-derived cell line H3122 is a NSCLC line with an EML4-ALK fusion, and it is sensitive to Ceritinib. To simulate the clinical development of therapeutic resistance following initial treatment, this cell line was cultured over a period of 6 months with low but increasing doses of Ceritinib. […] These clones were expanded and comprise the cell lines LDKR1-4.
(§2) FIG. 5 is a schematic diagram showing the development of the cell lines.

Another test concerns H3122 cell line. Put plainly: Ceritinib sensitivity of parental H3122 cell line. It is filed as cell-based. As to conditions: Homo sapiens, NCI-H3122; ALK-positive H3122 parental cell line. How it is done:
as §1, §2

The next test has as its target ALK (Homo sapiens, UniProt Q9UM73). Put plainly: Proteomic/phosphoproteomic profiling of ALK phosphorylation after Ceritinib treatment. It is filed as cell-based. How it is done: The H3122 parental and LDKR1-4 cell lines were each grown in culture with or without the addition of Ceritinib for 24 hours, and harvested cells were subsequently processed for both proteomic and phosphoproteomic analyses. Specifically, each of the cell lines was cultured in RPMI-1640 media supplemented with 10% FBS, 100 units/mL penicillin, and 100 μg/mL streptomycin. Cells were treated for 24 hours with 300 nM Ceritinib (also known as LDK378). Cells were collected, and the cell pellets were resuspended in mammalian lysis buffer and lysed by passage through a 21 gauge needle. The lysate was centrifuged at 15,000×g for 5 minutes at 4° C., and insoluble debris was discarded.
The lysates were then prepared for mass spectrometry analysis. Samples were reduced with DTT, alkylated with iodoacetamide, and precipitated with methanol/chloroform. […] Samples were quenched with 1% TFA and desalted using Sep-Pak C18 (SPE) cartridges (obtained from Waters Corp., Milford, MA). The peptide concentration of each sample was determined using a BCA assay.
For phosphoproteomic analysis, 2.0 mg of digested peptides were enriched for phosphopeptides using titanium dioxide beads, labeled with TMT10-plex reagents, and further enriched with a phosphotyrosine antibody. Specifically, 8 mg of titanium dioxide beads were incubated with the peptide in binding buffer (2 M lactic acid in 50% ACN/50% H2O) for 1 hour with gentle shaking. […] Samples were acidified and desalted over Sep-Pak C18 SPE cartridges.

The next test relates to Aurora Kinases. As to conditions: cited from earlier work.
Test [1] deals with T1, polo-like Kinase 4 (PLK4) (Homo sapiens, UniProt O00444).
T1 sequence (O00444 1-970): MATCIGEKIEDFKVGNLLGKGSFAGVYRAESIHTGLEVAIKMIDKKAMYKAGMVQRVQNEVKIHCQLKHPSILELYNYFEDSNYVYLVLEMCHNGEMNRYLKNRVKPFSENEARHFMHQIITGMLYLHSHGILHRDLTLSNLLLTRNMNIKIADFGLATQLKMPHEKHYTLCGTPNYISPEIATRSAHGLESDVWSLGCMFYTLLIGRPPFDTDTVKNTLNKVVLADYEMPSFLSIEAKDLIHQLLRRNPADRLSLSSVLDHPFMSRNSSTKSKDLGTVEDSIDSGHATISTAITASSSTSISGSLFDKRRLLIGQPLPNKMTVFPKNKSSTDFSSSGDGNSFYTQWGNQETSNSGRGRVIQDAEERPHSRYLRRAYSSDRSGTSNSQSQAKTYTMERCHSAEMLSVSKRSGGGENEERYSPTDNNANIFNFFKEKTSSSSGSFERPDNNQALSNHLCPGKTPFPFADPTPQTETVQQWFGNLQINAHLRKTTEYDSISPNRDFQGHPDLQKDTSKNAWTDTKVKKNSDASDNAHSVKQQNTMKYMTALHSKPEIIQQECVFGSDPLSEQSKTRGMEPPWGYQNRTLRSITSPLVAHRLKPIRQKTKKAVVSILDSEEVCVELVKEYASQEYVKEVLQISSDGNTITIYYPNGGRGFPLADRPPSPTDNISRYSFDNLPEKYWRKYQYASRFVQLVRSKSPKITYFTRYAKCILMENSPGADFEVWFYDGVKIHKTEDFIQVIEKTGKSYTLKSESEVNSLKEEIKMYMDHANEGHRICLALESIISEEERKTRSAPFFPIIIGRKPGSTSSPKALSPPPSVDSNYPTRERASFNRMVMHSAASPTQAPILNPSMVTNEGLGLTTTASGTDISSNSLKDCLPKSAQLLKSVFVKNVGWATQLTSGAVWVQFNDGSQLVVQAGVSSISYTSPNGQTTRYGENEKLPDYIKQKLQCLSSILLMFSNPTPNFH
Particulars: cited from earlier work.

Test [2] concerns breast cancer cell lines with dysregulated centromere complex. As to the kind of experiment: Drug response (AUC) of cell lines with vs without dysregulation in the centromere complex. It is filed as cell-based. As to conditions: 41 breast cancer cell lines, AUC ratio, FIG. 32B. How it is done: (§3) The drug candidates were screened at different concentrations, and the response to each drug candidate was measured as an area under the curve (AUC). Three known complexes—the BRCA1-associated genome surveillance complex, the centromere, and the proteasome—were selected from the CORUM database, and for each complex, the cell lines evaluated were separated into a first group in which cell lines carried dysregulated protein-protein interactions on any of the proteins in the complex, and a second group in which cell lines carried no dysregulations on any of the proteins in the complex.
(§4) Each figure is a plot showing how protein-protein interaction dysregulation in one of the selected complexes affects the responses of the evaluated breast cancer cell lines to different drug candidates. In each plot, every data point represents a different drug candidate. The horizontal axis in each plot represents the base 2 logarithm of the ratio of the drug candidate response in cell lines with dysregulation to the drug candidate response in cell lines without dysregulation. The vertical axis in each plot, which corresponds to the base 10 logarithm of the Grubbs test p-value, represents the significance of the drug candidate response difference.

For test [3], the system named is breast cancer cell lines with dysregulated BRCA1-associated genome surveillance complex. As to the kind of experiment: Drug response (AUC) of cell lines with vs without dysregulation in the BRCA1-associated genome surveillance complex. It is filed as cell-based. Particulars: 41 breast cancer cell lines, AUC ratio dysregulated/not dysregulated, FIG. 32A. How it is done:
as §3, §4

The subject of test [4] is breast cancer cell lines with dysregulated proteasome complex. As to the kind of experiment: Drug response (AUC) of cell lines with vs without dysregulation in the proteasome complex. It is filed as cell-based. As to conditions: 41 breast cancer cell lines, AUC ratio, FIG. 32C. On the procedure:
as §3
as §4, with “difference. […]” for “difference.”

Setting [5] is: parental H3122, 300 nM Ceritinib, 24 hours, ratio to parental with no drug.

ALK, sequence (Q9UM73 with tags, fused parts or gaps): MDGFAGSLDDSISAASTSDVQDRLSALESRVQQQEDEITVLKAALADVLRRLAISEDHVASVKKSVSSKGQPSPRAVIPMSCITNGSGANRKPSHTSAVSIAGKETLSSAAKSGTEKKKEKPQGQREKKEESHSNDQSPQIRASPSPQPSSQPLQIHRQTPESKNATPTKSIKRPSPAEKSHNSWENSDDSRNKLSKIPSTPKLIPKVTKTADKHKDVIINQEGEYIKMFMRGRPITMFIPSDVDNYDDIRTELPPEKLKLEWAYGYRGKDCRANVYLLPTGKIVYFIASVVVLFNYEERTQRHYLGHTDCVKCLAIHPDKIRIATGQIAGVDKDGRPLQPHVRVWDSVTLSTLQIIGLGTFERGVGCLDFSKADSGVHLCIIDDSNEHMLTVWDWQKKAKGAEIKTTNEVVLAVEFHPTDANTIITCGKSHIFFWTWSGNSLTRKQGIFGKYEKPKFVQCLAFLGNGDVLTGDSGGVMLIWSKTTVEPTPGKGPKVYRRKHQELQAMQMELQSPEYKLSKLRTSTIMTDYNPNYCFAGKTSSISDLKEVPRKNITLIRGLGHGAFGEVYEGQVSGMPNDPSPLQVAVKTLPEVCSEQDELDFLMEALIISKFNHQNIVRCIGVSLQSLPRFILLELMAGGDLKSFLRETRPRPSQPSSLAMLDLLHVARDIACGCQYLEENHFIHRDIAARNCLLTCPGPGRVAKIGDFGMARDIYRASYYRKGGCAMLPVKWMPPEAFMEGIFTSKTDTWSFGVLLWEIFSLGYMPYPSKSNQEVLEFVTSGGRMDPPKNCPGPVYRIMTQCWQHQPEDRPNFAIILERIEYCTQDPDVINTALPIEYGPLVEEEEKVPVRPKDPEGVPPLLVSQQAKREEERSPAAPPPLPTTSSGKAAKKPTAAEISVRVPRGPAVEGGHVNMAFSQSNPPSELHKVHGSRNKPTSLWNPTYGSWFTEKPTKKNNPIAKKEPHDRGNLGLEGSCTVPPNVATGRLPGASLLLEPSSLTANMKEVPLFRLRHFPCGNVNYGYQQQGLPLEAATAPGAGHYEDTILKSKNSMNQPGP

`Cc1cc(Nc2ncc(Cl)c(Nc3ccccc3S(=O)(=O)C(C)C)n2)c(OC(C)C)cc1C1CCNCC1` [Ceritinib]: in the test on LDKR1-4 cell lines (four resistant clones vs parental H3122), the “IC50 relative to the parental sensitive cell line” value is recorded as “at least twenty times higher”. Besides, the IC50 in the test with LDKR1-4 cell lines (resistant clones LDKR1-4) was in the range of 1490 to 3900 nM. In addition, the IC50 in the test with H3122 cell line was 53 nM. Further, the “inhibition of ALK activity in resistant cell lines” value at ALK (LDKR1-4, Ceritinib treatment) was “continued to be effective at inhibiting ALK activity in at least three of the four resistant cell lines”. For the same compound, at ALK (setting [5]), the “ALK Thr 1506/Tyr 1507/Ser 1509 phosphorylation upon drug treatment” value is listed as “decreasing fourfold” and the “ALK Tyr 1078 phosphorylation upon drug treatment” value is recorded as “decreased”.
As for `COc1cc2c(Oc3ccc(NC(=O)C4(C(=O)Nc5ccc(F)cc5)CC4)cc3F)ccnc2cc1OCCCN1CCOCC1` [XL-880, foretinib], the “inhibition of Aurora Kinases” value in the test with Aurora Kinases was “potently inhibit”. The “inhibition of polo-like Kinase 4 (PLK4)” value in test [1] is recorded as “inhibits”.
`C#Cc1cccc(Nc2ncnc3cc(OC)c(OCCCCCCC(=O)NO)cc23)c1` [CUDC-101]: the “effect of dysregulation in the centromere complex on cell line response to drug” value in test [2] was “sensitize”.
For the compound `Cc1cc(Nc2nc(N[C@@H](C)c3ncc(F)cn3)ncc2Cl)n[nH]1` [AZD1480], the “inhibition of Aurora Kinases” value in the test with Aurora Kinases is reported as “potently inhibit”.
Consider `Nc1ccn([C@@H]2O[C@H](CO)[C@@H](O)C2(F)F)c(=O)n1` [Gemcitabine], for which the “effect of dysregulation in the genome surveillance complex on cell line response to drug” value in test [3] was “sensitize”.
Take `CC(C)C[C@H](NC(=O)[C@H](CCc1ccccc1)NC(=O)CN1CCOCC1)C(=O)N[C@@H](Cc1ccccc1)C(=O)N[C@@H](CC(C)C)C(=O)[C@@]1(C)CO1` [Carfilzomib]: the “effect of dysregulation in the proteasome complex on cell line response to drug” value in test [4] is “densensitized”.
Bleomycin: the “effect of dysregulation in the genome surveillance complex on cell line response to drug” value in test [3] is given as “sensitize”.
For the compound `O=C(/C=C/c1ccc(CN(CCO)CCc2c[nH]c3ccccc23)cc1)NO` [LAQ824], the “effect of dysregulation in the centromere complex on cell line response to drug” value in test [2] is reported as “sensitize”.
In the case of `NC(=O)Nc1sc(-c2ccc(F)cc2)cc1C(N)=O` [TPCA-1], the “inhibition of Aurora Kinases” value with Aurora Kinases is “potently inhibit”.
Take `O=C(CCCCCCNC(=O)c1cnc(N(c2ccccc2)c2ccccc2)nc1)NO` [ACY-1215]: the “effect of dysregulation in the centromere complex on cell line response to drug” value in test [2] was “sensitize”.
